Where two headings read alike, the source gives them in different places.
Tested on: C. elegans
Assay: microbe, parasite or virus in culture
Conditions: Caenorhabditis elegans
[1] = 0 h, read-out: Percentage of motility inhibition 0 h, Table S2, C. elegans SS assay, 110 μM, 0 h, averages of 4 data points
[2] = 24 h, read-out: Percentage of motility inhibition 24 h, Table S2, C. elegans SS assay, 110 μM, 24 h, averages of 4 data points
[3] = 0 h, read-out: Percentage of motility inhibition 0 h
[4] = 24 h, read-out: Percentage of motility inhibition 24 h

SMILES	inhibition at 110 µM [1] [%]	inhibition at 110 µM [2] [%]	inhibition at 110 µM [3] [%]	inhibition at 110 µM [4] [%]
C/C=C(\C)C(=O)O[C@H]1[C@H](O)[C@]2(COC(C)=O)[C@H](O)C[C@]3(C)C(=CC[C@@H]4[C@@]5(C)CC[C@H](O[C@@H]6O[C@H](C(=O)O)[C@@H](O[C@@H]7O[C@H](CO)[C@@H](O)[C@H](O)[C@H]7O)[C@H](O)[C@H]6O[C@@H]6O[C@H](CO)[C@@H](O)[C@H](O)[C@H]6O)[C@](C)(CO)[C@@H]5CC[C@]43C)[C@@H]2CC1(C)C [Isoescin IA]	8	1		
C/C=C(/C)C(=O)O[C@H]1[C@H](O)[C@]2(COC(C)=O)[C@H](O)C[C@]3(C)C(=CC[C@@H]4[C@@]5(C)CC[C@H](O[C@@H]6O[C@H](C(=O)O)[C@@H](O[C@@H]7O[C@H](CO)[C@@H](O)[C@H](O)[C@H]7O)[C@H](O)[C@H]6O[C@@H]6O[C@H](CO)[C@@H](O)[C@H](O)[C@H]6O)[C@](C)(CO)[C@@H]5CC[C@]43C)[C@@H]2CC1(C)C [Isoescin IB]	9	0		
COc1ccc(-c2cc(=O)c3c(O)cc(O)c(-c4cc(-c5cc(=O)c6c(O)cc(O)cc6o5)ccc4OC)c3o2)cc1 [Isoginkgetin]	17	19		
COc1ccc(C[C@@H]2c3cc(Oc4cc(C[C@@H]5c6cc(O)c(OC)cc6CCN5C)ccc4O)c(OC)cc3CCN2C)cc1 [Isoliensinine]			3	17
C=C[C@@]1(C)Cc2occ(C)c2[C@@H]2OC(=O)C(=C)[C@@H]21 [Isolinderalactone]	13	9		
O=C(/C=C/c1ccc(O)cc1)c1ccc(O)cc1O [Isoliquiritigenin]	16	4		
O=C(/C=C/c1ccc(O[C@@H]2O[C@H](CO)[C@@H](O)[C@H](O)[C@H]2O)cc1)c1ccc(O)cc1O [Isoliquiritin]	24	2		
NNC(=O)c1ccncc1 [Isoniazid]	26	27		
O=C(O)c1ccncc1 [Isonicotinic acid]	0	0		
O=c1cc(-c2ccc(O)c(O)c2)oc2cc(O)c([C@@H]3O[C@H](CO)[C@@H](O)[C@H](O)[C@H]3O)c(O)c12 [Isoorientin]	6	22		
C=C[C@@]1(C)CC[C@H]2C(=CC[C@@H]3[C@]2(C)CCC[C@@]3(C)C(=O)O)C1 [Isopimaric acid]			0	14
O=c1c(O[C@@H]2O[C@H](CO)[C@@H](O)[C@H](O)[C@H]2O)c(-c2ccc(O)c(O)c2)oc2cc(O)cc(O)c12 [Isoquercitrin]	31	2		
COc1cc(-c2oc3cc(O)cc(O)c3c(=O)c2O)ccc1O [Isorhamnetin]	22	2		
C[C@@H]1O[C@@H](OC[C@H]2O[C@@H](Oc3cc(O)c4c(=O)cc(-c5ccc(O)cc5)oc4c3)[C@H](O)[C@@H](O)[C@@H]2O)[C@H](O)[C@H](O)[C@H]1O [Isorhoifolin]	0	20		
CC[C@H]1CN2CC[C@@]3(C(=O)Nc4ccccc43)[C@@H]2C[C@@H]1/C(=C\OC)C(=O)OC [Isorhynchophylline]	0	0		
C[C@@]12CC[C@@H]3[C@@](CC[C@H]4[C@@]3(C)CCC[C@@]4(C)C(=O)O)(CC1=O)C2 [Isosteviol]	0	2		
O=c1cc(-c2ccc(O)cc2)oc2cc(O)c([C@@H]3O[C@H](CO)[C@@H](O)[C@H](O)[C@H]3O)c(O)c12 [Isovitexin]	11	6		
CCC(C)n1ncn(-c2ccc(N3CCN(c4ccc(OCC5COC(Cn6cncn6)(c6ccc(Cl)cc6Cl)O5)cc4)CC3)cc2)c1=O (stereo not shown) [Itraconazole]	18	22		
CC1=C2C(=O)[C@H]3[C@@H](CC=C4C[C@@H](O)CC[C@@]43C)[C@@H]2CC[C@]12O[C@@H]1C[C@H](C)CN[C@H]1[C@H]2C [Jervine]	0	33		

SMILES	inhibition at 110 µM [1] [%]	inhibition at 110 µM [2] [%]	inhibition at 110 µM [3] [%]	inhibition at 110 µM [4] [%]
COc1ccc(-c2oc3cc(O)cc(O)c3c(=O)c2O)cc1 [Kaempferide]	49	0		
C[C@@H]1O[C@@H](Oc2cc(O)c3c(=O)c(O[C@@H]4O[C@@H](C)[C@H](O)[C@@H](O)[C@H]4O)c(-c4ccc(O)cc4)oc3c2)[C@H](O)[C@H](O)[C@H]1O [Kaempferitrin]	4	16		
O=c1c(O)c(-c2ccc(O)cc2)oc2cc(O)cc(O)c12 [Kaempferol]	0	25		
C=C(C)[C@H]1CN[C@H](C(=O)O)[C@H]1CC(=O)O [Kainic acid]	0	0		
C=C1C(=O)[C@@]23[C@H](O)C[C@@H]4C(C)(C)CC[C@H](O)[C@@]4(CO)[C@@H]2CC[C@@H]1[C@H]3O [Kamebakaurin]	0	11		
C=C1C[C@@]23CC[C@H]4[C@@](C)(CCC[C@@]4(C)C(=O)O)[C@@H]2CC[C@@H]1C3 [Kaurenoic acid]	0	7		
CC(=O)N1CCN(c2ccc(OCC3COC(Cn4ccnc4)(c4ccc(Cl)cc4Cl)O3)cc2)CC1 (stereo not shown) [Ketoconazole]	13	0		
O=C1N[C@@H]2[C@@H](O)[C@@H](O)[C@H](O)[C@@H](CO)N2C1=O [Kifunensine]	30	5		
C[C@@]1(CO)C[C@@H](O)C[C@@]2(C)[C@@H]3CC[C@](C)([C@@H](O)CO)C=C3CC[C@H]12 [Kirenol]	0	15		
C=C[C@@]12CN(C)[C@H]3C[C@]14C(=Nc1ccccc14)[C@H]1C[C@@H]2[C@@H]3CO1 [Koumine]	16	18		
O=C(CCc1ccc(O)c(O)c1)NCCCNCCCCNCCCNC(=O)CCc1ccc(O)c(O)c1 [Kukoamine A]	0	32		
C=C(C)[C@H](CC=C(C)C)Cc1c(O)cc(OC)c2c1O[C@H](c1ccc(O)cc1O)CC2=O [Kurarinone]	0	0		
C=C(C)[C@H](CC=C(C)C)Cc1c(O)cc(O)c2c1O[C@H](c1ccccc1O)CC2=O [Kushenol A]	14	10		
N=C(N)NCCC[C@H](N)C(=O)O [L-Arginine]			0	0
O=C1O[C@H]([C@@H](O)CO)C(O)=C1O [L-Ascorbic acid]	5	9		
N[C@@H](CC(=O)O)C(=O)O [L-Aspartic acid]	20	30		
N[C@@H](CS)C(=O)O [L-Cysteine]	4	7		
N[C@@H](CCC(=O)O)C(=O)O [L-Glutamic acid]	3	1		
NC(=O)CC[C@H](N)C(=O)O [L-Glutamine]	3	0		

SMILES	inhibition at 110 µM [1] [%]	inhibition at 110 µM [2] [%]	inhibition at 110 µM [3] [%]	inhibition at 110 µM [4] [%]
N[C@@H](Cc1c[nH]cn1)C(=O)O [L-Histidine]	23	22		
CC[C@H](C)[C@H](N)C(=O)O [L-Isoleucine]	14	17		
C[C@H](O)C(=O)O [L-Lactic acid]	16	21		
CC(C)C[C@H](N)C(=O)O [L-Leucine]	4	11		
NCCCC[C@H](N)C(=O)O [L-Lysine]			19	2
CSCC[C@H](N)C(=O)O [L-Methionine]	0	0		
N[C@@H](Cc1ccccc1)C(=O)O [L-Phenylalanine]	23	21		
O=C(O)[C@@H]1CCCN1 [L-Proline]	0	0		
N[C@@H](CO)C(=O)O [L-Serine]	0	0		
N[C@@H](Cc1c[nH]c2ccccc12)C(=O)O [L-Tryptophan]			26	3
N[C@@H](Cc1ccc(O)cc1)C(=O)O [L-Tyrosine]			34	8
CC(C)[C@H](N)C(=O)O [L-Valine]	0	12		
CC12CC3OC4O[C@H](CO)[C@@H](O)[C@H](O)[C@H]4OC34CC1C4(COC(=O)c1ccccc1)C(=O)O2 (stereo partly shown) [Lactiflorin]	0	11		
Nc1ccn([C@@H]2CS[C@H](CO)O2)c(=O)n1 [Lamivudine]	23	5		
CC(=O)O[C@H]1C[C@H](O[C@H]2[C@@H](O)C[C@H](O[C@H]3[C@@H](O)C[C@H](O[C@H]4CC[C@@]5(C)[C@H](CC[C@@H]6[C@@H]5C[C@@H](O)[C@]5(C)[C@@H](C7=CC(=O)OC7)CC[C@]65O)C4)O[C@@H]3C)O[C@@H]2C)O[C@H](C)[C@H]1O[C@@H]1O[C@H](CO)[C@@H](O)[C@H](O)[C@H]1O [Lanatoside C]	0	2		
CC[C@@H](C(=O)[C@@H](C)[C@@H](O)[C@H](C)CCc1ccc(C)c(O)c1C(=O)O)[C@H]1O[C@](CC)([C@H]2CC[C@](O)(CC)[C@H](C)O2)C[C@@H]1C [Lasalocid]	23	21		
COC(=O)N[C@H](C(=O)N1CC2(CC2)C[C@H]1c1nc(-c2ccc3c(c2)C(F)(F)c2cc(-c4ccc5[nH]c([C@@H]6[C@H]7CC[C@H](C7)N6C(=O)[C@@H](NC(=O)OC)C(C)C)nc5c4)ccc2-3)c[nH]1)C(C)C [Ledipasvir]	25	1		
COc1cc(C(=O)OCCCCNC(=N)N)cc(OC)c1O [Leonurine]	0	0		

— PMC11855827, “High-Throughput Screening of Five Compound Libraries for Anthelmintic Activity and Toxicity Leads to the Discovery of Two Flavonoid Compounds” (International Journal of Molecular Sciences, 2025)
